# Tests used:
# Format in all cases: functional
# [1] = test system: Streptococcus pneumoniae; assay: Antibacterial activity against penicillin-resistant Streptococcus pneumoniae after 20 to 24 hrs by broth microdilution method
# [2] = test system: Streptococcus sp. 'group A'; assay: Antimicrobial activity against Streptococcus group A after 20 to 24 hrs by broth microdilution method
# [3] = test system: Staphylococcus aureus; assay: Antimicrobial activity against methicillin-resistant Staphylococcus aureus after 20 to 24 hrs by broth microdilution method
# [4] = test system: Enterococcus faecium; assay: Antibacterial activity against vancomycin-susceptible Enterococcus faecium after 20 to 24 hrs by broth microdilution method
# [5] = test system: Enterococcus faecium; assay: Antibacterial activity against vancomycin-resistant Enterococcus faecium after 20 to 24 hrs by broth microdilution method
# [6] = test system: Streptococcus pneumoniae; assay: Antibacterial activity against penicillin-susceptible Streptococcus pneumoniae after 20 to 24 hrs by broth microdilution method
# [7] = test system: Streptococcus pneumoniae; assay: Antibacterial activity against penicillin-intermediate Streptococcus pneumoniae after 20 to 24 hrs by broth microdilution method
# [8] = test system: Staphylococcus aureus; assay: Antimicrobial activity against methicillin-susceptible Staphylococcus aureus after 20 to 24 hrs by broth microdilution method
# [9] = test system: Streptococcus viridans; assay: Antimicrobial activity against Streptococcus viridans after 20 to 24 hrs by broth microdilution method
# [10] = test system: Streptococcus sp. 'group B'; assay: Antimicrobial activity against Streptococcus group B after 20 to 24 hrs by broth microdilution method
# [11] = test system: Staphylococcus; assay: Antimicrobial activity against methicillin-susceptible coagulase-negative Staphylococcus after 20 to 24 hrs by broth microdilution method
# [12] = test system: Staphylococcus; assay: Antimicrobial activity against methicillin-resistant coagulase-negative Staphylococcus after 20 to 24 hrs by broth microdilution method
# [13] = test system: Enterococcus faecalis; assay: Antimicrobial activity against vancomycin-resistant Enterococcus faecalis after 20 to 24 hrs by broth microdilution method
# [14] = test system: Enterococcus faecalis; assay: Antimicrobial activity against vancomycin-susceptible Enterococcus faecalis after 20 to 24 hrs by broth microdilution method
SMILES,MIC50 [1] [µg/mL],MIC90 [1] [µg/mL],MIC50 [2] [µg/mL],MIC90 [2] [µg/mL],MIC50 [3] [µg/mL],MIC90 [3] [µg/mL],MIC50 [6] [µg/mL],MIC90 [6] [µg/mL],MIC50 [7] [µg/mL],MIC90 [7] [µg/mL],MIC50 [8] [µg/mL],MIC90 [8] [µg/mL],MIC50 [9] [µg/mL],MIC90 [9] [µg/mL],MIC50 [10] [µg/mL],MIC90 [10] [µg/mL],MIC50 [11] [µg/mL],MIC90 [11] [µg/mL],MIC50 [12] [µg/mL],MIC90 [12] [µg/mL],also measured
CCCCCCCCCC(=O)N[C@@H](Cc1c[nH]c2ccccc12)C(=O)N[C@H](CC(N)=O)C(=O)N[C@@H](CC(=O)O)C(=O)N[C@@H]1C(=O)NCC(=O)N[C@@H](CCCN)C(=O)N[C@@H](CC(=O)O)C(=O)N[C@H](C)C(=O)N[C@@H](CC(=O)O)C(=O)NCC(=O)N[C@H](CO)C(=O)N[C@@H]([C@H](C)CC(=O)O)C(=O)N[C@@H](CC(=O)c2ccccc2N)C(=O)O[C@@H]1C,0.12,0.12,0.06,0.06,0.5,0.5,0.12,0.25,0.12,0.25,0.25,0.5,0.5,1,0.25,0.25,0.5,1,0.5,0.5,MIC50 [4]: 2 µg/mL; MIC90 [4]: 4 µg/mL; MIC50 [5]: 2 µg/mL; MIC90 [5]: 2 µg/mL; MIC [13]: 0.5 µg/mL; MIC50 [13]: 0.5 µg/mL; MIC90 [13]: 2 µg/mL; MIC50 [14]: 1 µg/mL; MIC90 [14]: 2 µg/mL
CC1(C)S[C@@H]2[C@H](NC(=O)[C@H](N)c3ccccc3)C(=O)N2[C@H]1C(=O)O [AMPICILLIN],–,–,–,–,–,–,–,–,–,–,–,–,–,–,–,–,–,–,–,–,MIC50 [4]: 64 µg/mL; MIC90 [4]: 128 µg/mL; MIC50 [5]: 128 µg/mL; MIC90 [5]: 128 µg/mL; MIC [13]: 1 µg/mL; MIC50 [13]: 1 µg/mL; MIC90 [13]: 4 µg/mL; MIC50 [14]: 1 µg/mL; MIC90 [14]: 2 µg/mL
CO/N=C(\C(=O)N[C@@H]1C(=O)N2C(C(=O)O)=C(CSc3nc(=O)c(O)nn3C)CS[C@H]12)c1csc(N)n1 [CEFTRIAXONE],1,2,0.03,0.03,–,–,0.03,0.03,0.12,1,–,–,0.12,2,0.06,0.06,–,–,–,–,–
CO/N=C(\C(=O)N[C@@H]1C(=O)N2C(C(=O)O)=C(COC(N)=O)CS[C@H]12)c1ccco1 [CEFUROXIME],> 4,> 4,≤ 0.12,≤ 0.12,–,–,≤ 0.12,≤ 0.12,0.5,4,–,–,≤ 0.12,2,≤ 0.12,≤ 0.12,–,–,–,–,MIC [1]: ≥ 4 µg/mL; MIC [2]: ≤ 0.12 µg/mL; MIC [6]: ≤ 0.12 µg/mL; MIC [9]: ≤ 0.12 µg/mL; MIC [10]: ≤ 0.12 µg/mL
O=C(O)c1cn(C2CC2)c2cc(N3CCNCC3)c(F)cc2c1=O [CIPROFLOXACIN],–,–,–,–,> 8,> 8,–,–,–,–,0.25,1,–,–,–,–,–,–,2,> 8,MIC50 [5]: 32 µg/mL; MIC50 [13]: 1 µg/mL; MIC50 [14]: 1 µg/mL; MIC90 [14]: > 32 µg/mL
CCC[C@@H]1C[C@@H](C(=O)N[C@@H]([C@H]2O[C@H](SC)[C@H](O)[C@@H](O)[C@H]2O)[C@H](C)Cl)N(C)C1 [CLINDAMYCIN],> 0.25,–,≤ 0.03,0.06,–,> 4,0.06,0.06,0.06,> 0.25,≤ 0.5,≤ 0.5,≤ 0.03,> 0.25,0.06,0.06,≤ 0.5,≤ 0.5,–,> 4,MIC [2]: ≤ 0.03 µg/mL; MIC [8]: ≤ 0.5 µg/mL; MIC [9]: ≤ 0.03 µg/mL; MIC [11]: ≤ 0.5 µg/mL
CC[C@H]1OC(=O)[C@H](C)[C@@H](O[C@H]2C[C@@](C)(OC)[C@@H](O)[C@H](C)O2)[C@H](C)[C@@H](O[C@@H]2O[C@H](C)C[C@H](N(C)C)[C@H]2O)[C@](C)(O)C[C@@H](C)C(=O)[C@H](C)[C@@H](O)[C@]1(C)O [ERYTHROMYCIN],> 1,–,0.03,0.06,> 16,–,0.03,0.06,0.03,> 1,0.5,> 16,0.03,> 1,0.03,0.5,0.25,> 16,> 16,–,–
CNC1C(O)C(OC2C(N)CC(N)C(OC3OC(CN)CCC3N)C2O)OCC1(C)O (stereo not given) [GENTAMICIN C1A],–,–,–,–,0.5,> 16,–,–,–,–,0.25,1,–,–,–,–,≤ 0.06,≤ 0.06,8,> 16,MIC [11]: ≤ 0.06 µg/mL
C[C@H]1COc2c(N3CCN(C)CC3)c(F)cc3c(=O)c(C(=O)O)cn1c23.C[C@H]1COc2c(N3CCN(C)CC3)c(F)cc3c(=O)c(C(=O)O)cn1c23.O [LEVOFLOXACIN],0.5,4,0.5,0.5,–,–,0.5,1,0.5,1,–,–,0.5,1,0.5,1,–,–,–,–,–
CC(=O)NC[C@H]1CN(c2ccc(N3CCOCC3)c(F)c2)C(=O)O1 [LINEZOLID],1,1,–,–,2,2,1,1,1,1,2,2,1,1,1,1,1,2,2,2,MIC50 [4]: 2 µg/mL; MIC90 [4]: 2 µg/mL; MIC50 [5]: 2 µg/mL; MIC90 [5]: 2 µg/mL; MIC [11]: 1 µg/mL; MIC50 [13]: 2 µg/mL; MIC90 [13]: 2 µg/mL; MIC50 [14]: 2 µg/mL; MIC90 [14]: 2 µg/mL
Cc1onc(-c2ccccc2)c1C(=O)N[C@@H]1C(=O)N2[C@@H]1SC(C)(C)[C@@H]2C(=O)O [OXACILLIN],–,–,–,–,> 4,> 4,–,–,–,–,0.25,0.5,–,–,–,–,0.12,0.12,> 4,> 4,–
CC[C@H]1OC(=O)[C@H](C)C(=O)[C@H](C)[C@@H](O[C@@H]2O[C@H](C)C[C@H](N(C)C)[C@H]2O)[C@](C)(OC)C[C@@H](C)C(=O)[C@H](C)[C@H]2N(CCCCn3cnc(-c4cccnc4)c3)C(=O)O[C@]12C [TELITHROMYCIN],0.015,0.03,0.015,0.015,0.12,> 8,0.008,0.008,0.008,0.25,0.12,0.12,0.008,0.12,0.015,0.015,0.06,0.5,0.12,> 8,–
CN(C)[C@@H]1C(O)=C(C(N)=O)C(=O)[C@@]2(O)C(O)=C3C(=O)c4c(O)cccc4[C@@](C)(O)[C@H]3C[C@@H]12 [TETRACYCLINE],0.25,–,0.12,> 8,–,–,0.12,0.25,0.25,> 8,–,–,0.5,> 8,> 8,> 8,–,–,–,–,MIC [2]: 0.12 µg/mL
CN[C@H](CC(C)C)C(=O)N[C@H]1C(=O)N[C@@H](CC(N)=O)C(=O)N[C@H]2C(=O)N[C@H]3C(=O)N[C@H](C(=O)N[C@H](C(=O)O)c4cc(O)cc(O)c4-c4cc3ccc4O)[C@H](O)c3ccc(c(Cl)c3)Oc3cc2cc(c3O[C@@H]2O[C@H](CO)[C@@H](O)[C@H](O)[C@H]2O[C@H]2C[C@](C)(N)[C@H](O)[C@H](C)O2)Oc2ccc(cc2Cl)[C@H]1O [VANCOMYCIN],0.25,0.5,0.25,0.5,1,1,0.25,0.5,0.25,0.5,0.5,1,0.5,1,0.5,0.5,1,2,1,2,MIC [1]: 0.25 µg/mL; MIC [2]: 0.25 µg/mL; MIC50 [4]: 1 µg/mL; MIC90 [4]: 1 µg/mL; MIC50 [5]: 512 µg/mL; MIC90 [5]: 512 µg/mL; MIC [6]: 0.25 µg/mL; MIC [7]: 0.25 µg/mL; MIC50 [13]: 512 µg/mL; MIC90 [13]: > 512 µg/mL; MIC50 [14]: 2 µg/mL; MIC90 [14]: 2 µg/mL

# — ChEMBL document CHEMBL1154412, “In vitro activity of telavancin against gram-positive clinical isolates recently obtained in Europe” (Antimicrob Agents Chemother, 2007)
